Target: T1, SIRT1 (Homo sapiens, UniProt Q96EB6)
T1 construct: made in house; host or cells: E. coli BL21(DE3)
T1 sequence (Q96EB6 1-747): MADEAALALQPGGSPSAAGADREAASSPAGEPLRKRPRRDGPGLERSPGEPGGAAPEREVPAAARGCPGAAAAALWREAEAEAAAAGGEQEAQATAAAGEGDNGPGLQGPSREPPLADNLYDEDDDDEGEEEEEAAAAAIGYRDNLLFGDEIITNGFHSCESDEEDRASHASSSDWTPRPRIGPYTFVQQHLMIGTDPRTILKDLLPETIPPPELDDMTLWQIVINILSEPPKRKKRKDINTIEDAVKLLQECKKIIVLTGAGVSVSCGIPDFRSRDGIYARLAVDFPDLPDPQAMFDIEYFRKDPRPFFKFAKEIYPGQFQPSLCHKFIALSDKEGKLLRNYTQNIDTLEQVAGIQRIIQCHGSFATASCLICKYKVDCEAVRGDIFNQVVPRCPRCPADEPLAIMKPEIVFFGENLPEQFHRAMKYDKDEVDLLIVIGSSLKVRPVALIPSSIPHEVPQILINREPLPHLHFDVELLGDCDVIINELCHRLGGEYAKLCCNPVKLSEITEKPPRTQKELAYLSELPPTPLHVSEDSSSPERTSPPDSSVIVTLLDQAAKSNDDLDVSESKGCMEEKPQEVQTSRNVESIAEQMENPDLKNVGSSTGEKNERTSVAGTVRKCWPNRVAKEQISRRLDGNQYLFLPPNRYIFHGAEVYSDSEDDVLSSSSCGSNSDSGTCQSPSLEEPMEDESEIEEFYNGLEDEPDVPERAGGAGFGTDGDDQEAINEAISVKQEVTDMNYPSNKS
Assay: mass spectrometry based assay to identify modulators of SIRT1 activity
Assay type: biochemical
Conditions: 10 nM SIRT1, 0.5 μM peptide substrate, 120 μM βNAD+, 25 minutes at 25° C.; for Emax: 25 min, read-out: % FOLD ACT. (percent maximum fold activation)
Source text: A mass spectrometry based assay was used to identify modulators of SIRT1 activity. The mass spectrometry based assay utilizes a peptide having 20 amino acid residues as follows: Ac-EE-K(biotin)-GQSTSSHSK(Ac)NleSTEG-K(5TMR)-EE-NH2 (SEQ ID NO: 1) wherein K(Ac) is an acetylated lysine residue and Nle is a norleucine. The peptide is labeled with the fluorophore 5TMR (excitation 540 nm/emission 580 nm) at the C-terminus. The sequence of the peptide substrate is based on p53 with several modifications. In addition, the methionine residue naturally present in the sequence was replaced with the norleucine because the methionine may be susceptible to oxidation during synthesis and purification.
The mass spectrometry assay is conducted as follows: 0.5 μM peptide substrate and 120 μM βNAD^+ is incubated with 10 nM SIRT1 for 25 minutes at 25° C. in a reaction buffer (50 mM Tris-acetate pH 8, 137 mM NaCl, 2.7 mM KCl, 1 mM MgCl2, 5 mM DTT, 0.05% BSA). Test compounds may be added to the reaction as described above. The SirT1 gene is cloned into a T7-promoter containing vector and transformed into BL21(DE3). After the 25 minute incubation with SIRT1, 10 μL of 10% formic acid is added to stop the reaction. Reactions are sealed and frozen for later mass spec analysis. Determination of the mass of the substrate peptide allows for precise determination of the degree of acetylation (i.e. starting material) as compared to deacetylated peptide (product).
A control for inhibition of sirtuin activity is conducted by adding 1 μL of 500 mM nicotinamide as a negative control at the start of the reaction (e.g., permits determination of maximum sirtuin inhibition). A control for activation of sirtuin activity is conducted using 10 nM of sirtuin protein, with 1 μL of DMSO in place of compound, to determine the amount of deacetylation of the substrate at a given timepoint within the linear range of the assay. This timepoint is the same as that used for test compounds and, within the linear range, the endpoint represents a change in velocity.
For the above assay, SIRT1 protein was expressed and purified as follows. The SirT1 gene was cloned into a T7-promoter containing vector and transformed into BL21(DE3). The protein was expressed by induction with 1 mM IPTG as an N-terminal His-tag fusion protein at 18° C. overnight and harvested at 30,000×g. Cells were lysed with lysozyme in lysis buffer (50 mM Tris-HCl, 2 mM Tris[2-carboxyethyl]phosphine (TCEP), 10 μM ZnCl2, 200 mM NaCl) and further treated with sonication for 10 min for complete lysis. The protein was purified over a Ni-NTA column (Amersham) and fractions containing pure protein were pooled, concentrated and run over a sizing column (Sephadex S200 26/60 global). The peak containing soluble protein was collected and run on an Ion-exchange column (MonoQ). Gradient elution (200 mM-500 mM NaCl) yielded pure protein. This protein was concentrated and dialyzed against dialysis buffer (20 mM Tris-HCl, 2 mM TCEP) overnight. The protein was aliquoted and frozen at −80° C. until further use.
Sirtuin modulating compounds that activated SIRT1 were identified using the assay described above and are shown below in Table 1. The EC1.5 values represent the concentration of test compounds that result in 150% activation of SIRT1. The EC1.5 values for the activating compounds are represented by A (EC1.5<10 μM), B (EC1-5 10-25 μM), C (EC1.5>25 μM). The percent maximum fold activation is represented by A (Fold activation >200%) or B (Fold Activation <200%).

| EC1.5 (concentration of test compound that results in 150% activation of SIRT1) | Emax [%] | SMILES |
| --- | --- | --- |
| C (EC1.5>25 μM) | < 200 | Cc1ccccc1N1Cc2cccc(NC(=O)Cc3cccnc3)c2C1=O [Compound 114] |
| C (EC1.5>25 μM) | < 200 | Cc1cccc(N2Cc3cccc(NC(=O)Cc4cccnc4)c3C2=O)c1 [Compound 115] |
| C (EC1.5>25 μM) | < 200 | COc1cccc(N2Cc3cccc(NC(=O)Cc4cccnc4)c3C2=O)c1 [Compound 116] |
| C (EC1.5>25 μM) | < 200 | Cc1ccc(N2Cc3cccc(NC(=O)Cc4cccnc4)c3C2=O)cc1 [Compound 117] |
| C (EC1.5>25 μM) | < 200 | COc1ccc(N2Cc3cccc(NC(=O)Cc4cccnc4)c3C2=O)cc1 [Compound 118] |
| C (EC1.5>25 μM) | < 200 | COc1ccccc1N1Cc2cccc(NC(=O)Cc3cccnc3)c2C1=O [Compound 119] |
| C (EC1.5>25 μM) | < 200 | O=C(Nc1cccc2c1C(=O)N(c1cccc(C(F)(F)F)c1)C2)c1ccccn1 [Compound 120] |
| C (EC1.5>25 μM) | < 200 | O=C(Nc1cccc2c1C(=O)N(c1cccc(C(F)(F)F)c1)C2)c1cccnc1 [Compound 121] |
| A (EC1.5<10 μM) | < 200 | O=C(Nc1cccc2c1C(=O)N(c1cccc(C(F)(F)F)c1)C2)c1ncccn1 [Compound 122] |
| B (EC1-5 10-25 μM) | < 200 | O=C(Nc1cccc2c1C(=O)N(c1cccc(C(F)(F)F)c1)C2)c1ccncc1 [Compound 123] |
| C (EC1.5>25 μM) | < 200 | O=C(Nc1cccc2c1C(=O)N(c1cccc(C(F)(F)F)c1)C2)c1cscn1 [Compound 124] |
| A (EC1.5<10 μM) | < 200 | O=C(Nc1cccc2c1C(=O)N(c1cccc(C(F)(F)F)c1)C2)c1ccc(CN2CCCC2)cc1 [Compound 125] |
| C (EC1.5>25 μM) | < 200 | O=C(Nc1cccc2c1C(=O)N(c1cccc(C(F)(F)F)c1)C2)c1cncnc1 [Compound 126] |
| C (EC1.5>25 μM) | < 200 | O=C(Nc1cccc2c1C(=O)N(c1cccc(C(F)(F)F)c1)C2)c1ccncn1 [Compound 127] |
| C (EC1.5>25 μM) | < 200 | O=C(Nc1cccc2c1C(=O)N(c1cccc(C(F)(F)F)c1)C2)c1cncs1 [Compound 128] |
| C (EC1.5>25 μM) | < 200 | O=C(Nc1cccc2c1C(=O)N(c1cccc(C(F)(F)F)c1)C2)c1cccc(OCC(O)CO)n1 (centres unmarked) [Compound 129, 6-(2,3-dihydroxypropoxy)-N-(3-oxo-2-(3-(trifluoromethyl)phenyl)isoindolin-4-yl)picolinamide] |
| A (EC1.5<10 μM) | < 200 | O=C(Nc1cccc2c1C(=O)N(c1cccc(C(F)(F)F)c1)C2)c1cccc(CN2CCOCC2)n1 [Compound 130, 6-(morpholinomethyl)-N-(3-oxo-2-(3-(trifluoromethyl)phenyl)isoindolin-4-yl)picolinamide] |

The next lines start with the compound.

| SMILES | EC1.5 (concentration of test compound that results in 150% activation of SIRT1) | Emax [%] |
| --- | --- | --- |
| O=C(Nc1cccc2c1C(=O)N(c1cccc(C(F)(F)F)c1)C2)c1cnccn1 [Compound 100, N-(3-oxo-2-(3-(trifluoromethyl)phenyl)isoindolin-4-yl)pyrazine-2-carboxamide] | A (EC1.5<10 μM) | < 200 |
| O=C(Cc1cccnc1)Nc1cccc2c1C(=O)N(c1cccc(C(F)(F)F)c1)C2 [Compound 101] | C (EC1.5>25 μM) | < 200 |
| O=C(Cc1cccnc1)Nc1cccc2c1C(=O)N(c1cccc(OC3CCNCC3)c1)C2 [Compound 102, N-(3-oxo-2-(3-(piperidin-4-yloxy)phenyl)isoindolin-4-yl)-2-(pyridin-3-yl)acetamide] | C (EC1.5>25 μM) | < 200 |
| O=C(Cc1cccnc1)Nc1cccc2c1C(=O)N(c1cccc(O[C@@H]3CCNC3)c1)C2 [Compound 103] | B (EC1-5 10-25 μM) | < 200 |
| O=C(Cc1cccnc1)Nc1cccc2c1C(=O)N(c1cccc(-c3ccncc3)c1)C2 [Compound 104] | C (EC1.5>25 μM) | < 200 |
| CC1(C(=O)Nc2cccc3c2C(=O)N(c2cccc(C(F)(F)F)c2)C3)CCCCC1 [Compound 105] | C (EC1.5>25 μM) | < 200 |
| CC(C)(C(=O)Nc1cccc2c1C(=O)N(c1cccc(C(F)(F)F)c1)C2)c1ccccc1 [Compound 106] | C (EC1.5>25 μM) | < 200 |
| O=C(Cc1cccnc1)Nc1cccc2c1C(=O)N(c1cccc(OC(F)(F)F)c1)C2 [Compound 107] | C (EC1.5>25 μM) | < 200 |
| O=C(Nc1cccc2c1C(=O)N(c1cccc(OC(F)(F)F)c1)C2)C1CCCC1 [Compound 108] | C (EC1.5>25 μM) | < 200 |
| O=C(Cc1ccccc1F)Nc1cccc2c1C(=O)N(c1cccc(C(F)(F)F)c1)C2 [Compound 109] | C (EC1.5>25 μM) | < 200 |
| O=C(Cc1cccc(F)c1)Nc1cccc2c1C(=O)N(c1cccc(C(F)(F)F)c1)C2 [Compound 110] | C (EC1.5>25 μM) | < 200 |
| O=C(Nc1cccc2c1C(=O)N(c1cccc(C(F)(F)F)c1)C2)C1CCOCC1 [Compound 111] | A (EC1.5<10 μM) | < 200 |
| O=C(CC1CCCC1)Nc1cccc2c1C(=O)N(c1cccc(C(F)(F)F)c1)C2 [Compound 112] | C (EC1.5>25 μM) | < 200 |
| O=C(Cc1ccc(F)cc1)Nc1cccc2c1C(=O)N(c1cccc(C(F)(F)F)c1)C2 [Compound 113] | C (EC1.5>25 μM) | < 200 |

— patent US20110319411A1, “ISOINDOLINONE AND RELATED ANALOGS AS SIRTUIN MODULATORS” (Sirtis Pharmaceuticals, Inc., priority 2008, published 2011)
